The target in experiment [1] is T1, Glucocorticoid Receptor of Rat's Thymus (Rattus norvegicus, UniProt P06536).
T1 construct: The thymuses were removed and homogenized at 0° C; from tissue; host or cells: thymus of adrenalectomized male Sprague-Dawley rats, 105,000 g supernatant (cytosol)
T1 sequence (P06536 1-795): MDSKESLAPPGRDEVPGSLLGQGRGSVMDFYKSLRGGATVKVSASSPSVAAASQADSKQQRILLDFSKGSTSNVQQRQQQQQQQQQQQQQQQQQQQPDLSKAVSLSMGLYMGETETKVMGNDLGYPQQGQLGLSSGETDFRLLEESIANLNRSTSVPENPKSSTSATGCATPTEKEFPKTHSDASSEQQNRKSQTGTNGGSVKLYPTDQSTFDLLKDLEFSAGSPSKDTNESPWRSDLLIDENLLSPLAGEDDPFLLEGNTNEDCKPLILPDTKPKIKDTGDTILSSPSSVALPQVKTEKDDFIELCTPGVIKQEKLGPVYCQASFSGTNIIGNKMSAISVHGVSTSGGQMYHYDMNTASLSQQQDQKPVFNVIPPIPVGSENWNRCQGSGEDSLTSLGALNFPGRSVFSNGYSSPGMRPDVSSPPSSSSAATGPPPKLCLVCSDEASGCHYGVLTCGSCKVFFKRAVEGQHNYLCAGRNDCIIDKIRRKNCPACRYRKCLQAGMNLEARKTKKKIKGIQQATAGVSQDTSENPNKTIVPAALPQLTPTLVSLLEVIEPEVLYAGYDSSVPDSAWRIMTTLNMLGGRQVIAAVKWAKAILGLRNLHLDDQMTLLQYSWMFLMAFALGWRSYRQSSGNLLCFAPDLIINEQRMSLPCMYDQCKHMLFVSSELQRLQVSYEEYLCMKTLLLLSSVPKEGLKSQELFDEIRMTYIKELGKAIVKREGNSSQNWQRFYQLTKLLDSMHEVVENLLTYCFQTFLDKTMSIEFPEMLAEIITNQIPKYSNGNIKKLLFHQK
Kind of experiment: Glucocorticoid receptor of rat's thymus, relative bond affinity (RBA). As to conditions: vs tritiated dexamethasone; for relative bond affinity (RBA), Glucocorticoid, 4 H: incubation 4 H at 0° C.; for relative bond affinity (RBA), Glucocorticoid, 24 H: incubation 24 H at 0° C. In kind it is binding. The procedure: Male Sprague-Dawley EOPS rats weighing 160 to 200 g were suprarenalectomized and 4 to 8 days after this removal, the animals were killed. The thymuses were removed and homogenized at 0° C. in a 10 mM Tris, 0.15M saccharose, 2 mM dithiothreitol, HCl pH 7.4 buffer using a Potter polytetra-fluoroethylene flask (1 g of tissue per 10 ml of TS). The homogenate was ultracentrifuged (105,000 g×90 min) at 0° C. and the aliquots of the supernatant were incubated at 0° C. for a time (t) with a constant concentration (T) of tritiated dexamethasone in the presence of increasing concentrations (0-2,500×10^-9 M)either of cold dexamethasone, or the cold product to be tested. The concentration of the bound tritiated dexamethasone (B) was measured in each incubate by the technique of adsorption with carbon dextran.
(§1) The calculation of the relative bond affinity (RBA) was identical for both receptors.
(§2) The following 2 curves were drawn: the percentage of bound tritiated hormone B/T as a function of the logarithm of the concentration of the cold reference hormone and B/T as a function of the logarithm of the concentration of the cold tested product. The straight line of the equation [formula] was determined. B/T max=Percentage of bound tritiated hormone for an incubation of this tritiated hormone at the concentration (T).
(§3) B/T min=Percentage of the bound tritiated hormone for an incubation of this tritiated hormone at the concentration (T) in the presence of a large excess of cold hormone (2,500×10^-9 M).
(§4) The intersections of the straight line I50 and the curves enabled the concentrations of cold reference hormone (CH) and cold tested product (CX) which inhibited the bonding of the tritiated hormone on the receptor by 50% to be evaluated.
(§5) The relative bond affinity (RBA) of the tested product was determined by the equation: [formula]

Experiment [2] deals with Thymocytes of suprarenalectomized rats. Briefly: Antiglucocorticoid activity: tritiated uridine incorporation in thymocytes with dexamethasone. In kind it is cell-based, rat. As to conditions: for inhibition at 1 µM / inhibition at 0.1 µM / inhibition at 0.01 µM: Rattus norvegicus, Thymocyte, 5.10^-8 M dexamethasone, 37° C., 3 hours, read-out: % inhibition of the effect of the Dexamethasone; for inhibition at 1 µM: product at 10^-6 M; for inhibition at 0.1 µM: product at 10^-7 M; for inhibition at 0.01 µM: product at 10^-8 M. The procedure: The technique used was derived from the method of Dausse et al, Molecular Pharmacology, Vol. 13, p. 948-955 (1977) ("the relationship between glucocorticoid structure and effects upon Thymocytes"), for the thymocytes of mice. Thymocytes of suprarenalectomized rats were incubated at 37° C. for 3 hours in a nutritive medium containing 5.10^-8 M of dexamethasone in the presence or not of a product to be studied at different concentrations. Tritiated uridine was added, and the incubation was continued for one hour. The incubates were cooled, treated with a 5% solution of trichloroacetic acid, filtered on Whatman GF/A paper and washed three times using a solution of 5% trichloroacetic acid. The radioactivity retained by the filter paper was determined.

Experiment [3] deals with T2, Progestogen Receptor of Rabbit's Uterus (Oryctolagus cuniculus, UniProt P06186).
T2 construct: The uteri were removed, weighed and homogenized at 0° C; from tissue; host or cells: uterus of estradiol-treated impubic rabbits, 105,000 g supernatant (cytosol)
T2 sequence (P06186 1-930): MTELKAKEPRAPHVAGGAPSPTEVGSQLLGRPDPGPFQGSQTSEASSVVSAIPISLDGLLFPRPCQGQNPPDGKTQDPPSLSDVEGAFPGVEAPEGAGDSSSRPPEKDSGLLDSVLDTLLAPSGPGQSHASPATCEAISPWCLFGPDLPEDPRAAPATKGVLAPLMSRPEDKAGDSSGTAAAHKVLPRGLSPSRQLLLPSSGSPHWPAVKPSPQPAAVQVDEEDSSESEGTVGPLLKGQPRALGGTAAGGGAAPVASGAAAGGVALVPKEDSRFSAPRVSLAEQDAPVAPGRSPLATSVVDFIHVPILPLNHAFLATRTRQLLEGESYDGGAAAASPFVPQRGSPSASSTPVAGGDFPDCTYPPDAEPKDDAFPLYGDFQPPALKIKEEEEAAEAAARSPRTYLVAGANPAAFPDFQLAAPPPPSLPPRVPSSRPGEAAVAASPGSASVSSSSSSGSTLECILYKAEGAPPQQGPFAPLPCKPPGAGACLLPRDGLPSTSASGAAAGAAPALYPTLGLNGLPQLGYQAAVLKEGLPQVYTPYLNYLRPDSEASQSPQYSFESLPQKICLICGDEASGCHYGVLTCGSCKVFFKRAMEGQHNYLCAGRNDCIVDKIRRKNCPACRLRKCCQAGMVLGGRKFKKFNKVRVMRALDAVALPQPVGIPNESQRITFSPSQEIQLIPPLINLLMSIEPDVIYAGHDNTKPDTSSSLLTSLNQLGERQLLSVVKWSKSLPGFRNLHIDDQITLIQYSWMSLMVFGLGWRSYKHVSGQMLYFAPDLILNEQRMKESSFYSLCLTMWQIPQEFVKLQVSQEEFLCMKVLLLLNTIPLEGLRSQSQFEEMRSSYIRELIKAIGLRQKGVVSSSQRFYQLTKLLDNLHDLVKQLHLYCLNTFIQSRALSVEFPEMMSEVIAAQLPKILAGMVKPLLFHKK
Briefly: Progestogen receptor of rabbit's uterus, relative bond affinity (RBA). As to conditions: vs tritiated Product R; for relative bond affinity (RBA), Progestogen, 2 H: incubation 2 H at 0° C.; for relative bond affinity (RBA), Progestogen, 24 H: incubation 24 H at 0° C. The experiment is classed as binding. The protocol:
Impubic rabbits weighing about 1 kg received a cutaneous application of […] of estradiol and 5 days after this treatment, the animals were killed. The uteri were removed, weighed and homogenized at 0° C., using a Potter teflon flask in a buffered TS solution (10 mM Tris, 0.25 M saccharose, HCl pH 7.4) (1 g of tissue per 50 ml of TS). The homogenate was then ultracentrifuged (105,000 g×90 min) at 0° C. The aliquots of the supernatant were incubated at 0° C. for a time t, with a constant concentration (T) of tritiated Product R (17,21-dimethyl-19-nor-Δ^4,9 -pregnadiene-3,20-dione) in the presence of increasing concentrations (0-2,500×10^-9 M) either of cold R, or of cold progesterone, or of cold product to be tested. The concentration of bound tritiated R (B) was then measured in each incubate by the technique of adsorption with carbon dextran.
as §1, §2, §3, §4, §5

With `C=C1C[C@@]2(CC[C@H]3[C@@H]4CCC5=CC(=O)CCC5=C4[C@@H](c4ccc(N(C)C)cc4)C[C@@]32C)OC1=O` [Example 1, γ-lactone of 11β-[4-(dimethylamino)phenyl] 21-methylene 19-nor 17α-Δ^4,9-pregnadiene-17β-ol-3-one-21-carboxylic acid], in experiment [1], the “relative bond affinity (RBA), Glucocorticoid, 4 H” value was 135 and the “relative bond affinity (RBA), Glucocorticoid, 24 H” value is 94. For the same compound, in experiment [2], the inhibition at 1 µM was 116%, the inhibition at 0.1 µM was determined as 104% and the inhibition at 0.01 µM came to 71%. Further, in experiment [3], the “relative bond affinity (RBA), Progestogen, 2 H” value was 32 and the “relative bond affinity (RBA), Progestogen, 24 H” value was determined as 21.

Take `C=C1C[C@]2(CC[C@H]3[C@@H]4CCC5=CC(=O)CCC5=C4[C@@H](c4ccc(N(C)C)cc4)C[C@@]32C)OC1=O` [Example 2, γ-Lactone of 11β-[4-(dimethylamino)phenyl]21methylene-19-nor 17β-Δ^4,9-pregnadiene-17α-ol-3-one-21-carboxylic acid]: in experiment [1], the “relative bond affinity (RBA), Glucocorticoid, 4 H” value worked out at 136 and the “relative bond affinity (RBA), Glucocorticoid, 24 H” value was 59. In experiment [3], the “relative bond affinity (RBA), Progestogen, 2 H” value was 86 and the “relative bond affinity (RBA), Progestogen, 24 H” value was determined as 36.

Regarding `C=C1C[C@@]2(CC[C@H]3[C@@H]4CCC5=CC(=O)CCC5=C4[C@@H](c4ccc(SC)cc4)C[C@@]32C)OC1=O` [Example 3, γ-lactone of 11β-[4-(methylthio)phenyl]21-methylene 19-nor-17α-Δ^4,9-pregnadiene-17β-ol-3-one-21-carboxylic acid], in experiment [2], the inhibition at 1 µM stood at 133%, the inhibition at 0.1 µM worked out at 69% and the inhibition at 0.01 µM worked out at 24%.

As for `C[C@@H]1C[C@H]2[C@@H]3CCC4=CC(=O)C=C[C@]4(C)[C@@]3(F)[C@@H](O)C[C@]2(C)[C@@]1(O)C(=O)CO` [dexamethasone, reference compound], the “incorporation of tritiated uridine” value in experiment [2] (effect of dexamethasone itself, in words) is listed as “decrease”.

By inhibition is commonly meant the relative decrease from the control value, in per cent.

For the origin of these results see patent US5336686A, “17 Methylene lactones of steroids” (Roussel-Uclaf, priority 1992, dated 1994).
